The nature of data set [1]: Drug uptake in P-gp+ human […] cells at 3 uM incubated for 10 mins by confocal microscopy. In kind it is ADME, cell-based. As to conditions: k562/4, 10 min; call rule not given here.
The test system of data set [2] is K562. Put plainly: Induction of apoptosis in human K562 cells assessed as late apoptotic cells at 1 uM incubated for 24 hrs by Annexin V-FITC/PI staining based flow cytometry (reference value: 2.5 %). Format: functional.
The test system of data set [3] is K562. The experiment in a line: Induction of apoptosis in human K562 cells assessed as early apoptotic cells at 1 uM incubated for 24 hrs by Annexin V-FITC/PI staining based flow cytometry (reference value: 0.8 %). In kind it is functional. Background: A flow cytometer gives signals particle by particle.
The next data set has as its system A549. Put plainly: Antiproliferative activity against human A549 cells incubated for 72 hrs by MTT assay. Conditions: A549, 72 h. Format: functional, cell-based. In general terms: Formazan colour is commonly taken as a measure of viable cells.
Data set [4] is described as follows: Drug uptake in nuclear membrane of human HCT-116 cells at 3 uM incubated for 1 hr by confocal microscopy. As to conditions: hct-116, 1 h. In kind it is ADME, cell membranes.
The nature of data set [5]: Drug uptake in verapamil-treated human K562/4 cells at 2 uM incubated for 3 to 120 hrs by flow cytometry relative to wild-type culture. As to conditions: k562/4, 2 µM, time 3-120 hrs. Format: ADME, cell-based.
In data set [6] the test system is K562. The experiment in a line: Antiproliferative activity against human K562 cells incubated for 72 hrs by MTT assay. In kind it is functional, cell-based. As to conditions: K562, 72 h.
Data set [7] can be described thus: Drug uptake in P-gp+ human K562/4 cells at 2 uM incubated for 3 to 120 hrs by flow cytometry. Conditions: k562/4, 2 µM, time 3-120 hrs. In kind it is ADME, cell-based.
Data set [8] deals with K562. The experiment in a line: Induction of apoptosis in human K562 cells assessed as necrotic cells at 1 uM incubated for 48 hrs by Annexin V-FITC/PI staining based flow cytometry (reference value: 10.8 %). In kind it is functional.
Data set [9] can be described thus: Drug uptake in lysosome of human HCT-116 cells at 3 uM incubated for 1 hr by LysoTracker Deep Red dye based confocal microscopy. As to conditions: hct-116, 1 h. In kind it is ADME, subcellular.
For data set [10], the system named is K562. The experiment in a line: Induction of apoptosis in human K562 cells assessed as early apoptotic cells at 1 uM incubated for 48 hrs by Annexin V-FITC/PI staining based flow cytometry (reference value: 0.8 %). In kind it is functional.
Data set [11] has as its system K562/4. Put plainly: Effect on cell cycle distribution in human K562/4 cells assessed as cells with fragmented DNA at sub-G1 phase at 1 uM incubated for 72 hrs by PI staining based flow cytometry (reference value: 4 %). Format: functional.
Data set [12] relates to K562/4. The experiment in a line: Antiproliferative activity against human K562/4 cells incubated for 72 hrs by MTT assay. Format: functional, cell-based. Conditions: K562/4, 72 h.
Data set [13] concerns K562/4. Put plainly: Induction of apoptosis in human K562/4 cells assessed as viable cells at 1 uM incubated for 24 hrs by Annexin V-FITC/PI staining based flow cytometry (reference value: 10.8 %). In kind it is functional. As to conditions: read-out: Activity.
Data set [14] concerns K562/4. The experiment in a line: Effect on cell cycle distribution in human K562/4 cells assessed as cells with fragmented DNA at sub-G1 phase at 0.75 uM incubated for 48 hrs by PI staining based flow cytometry (reference value: 4 %). In kind it is functional.
Data set [15] concerns K562/4. The experiment in a line: Induction of apoptosis in human K562/4 cells assessed as late apoptotic cells at 1 uM incubated for 24 hrs by Annexin V-FITC/PI staining based flow cytometry (reference value: 2.5 %). In kind it is functional.
Data set [16] in a line: Drug uptake in human K562/4 cells assessed as fold increase at 2 uM incubated for 3 to 120 hrs by flow cytometry relative to LCTA-2640. In kind it is ADME, cell-based. Conditions: k562/4, 2 µM, time 3-120 hrs.
Data set [17] concerns K562/4. The experiment in a line: Induction of apoptosis in human K562/4 cells assessed as late apoptotic cells at 1 uM incubated for 48 hrs by Annexin V-FITC/PI staining based flow cytometry (reference value: 2.5 %). In kind it is functional.
Data set [18] concerns K562/4. The experiment in a line: Induction of apoptosis in human K562/4 cells assessed as viable cells at 1 uM incubated for 48 hrs by Annexin V-FITC/PI staining based flow cytometry (reference value: 86 %). In kind it is functional. Conditions: read-out: Activity.
Data set [19] has as its system K562/4. The experiment in a line: Effect on cell cycle distribution in human K562/4 cells assessed as cells with fragmented DNA at sub-G1 phase at 0.75 uM incubated for 24 hrs by PI staining based flow cytometry (reference value: 4 %). Format: functional.
Data set [20] in a line: Drug uptake in P-gp+ human K562i/S9 cells at 2 uM incubated for 3 to 120 hrs by flow cytometry. In kind it is ADME, cell-based. Conditions: k562i/s9, 2 µM, time 3-120 hrs.

A value given as a limit tells only on which side of the number the result lay.

The term IC50 denotes the concentration that inhibits the measured activity by half. As for `CS(=O)(=O)O.N[C@H]1CCN(C(=O)c2cc3c(O)c4c(c(O)c3[nH]2)C(=O)c2ccccc2C4=O)C1`, the Drug uptake entry in [1] is listed as “Active”; in [4], “Not_active”; in [5], 80%; in data set [7], “Active”; in data set [9], “Active”; in [20], “Active”. For the same compound, the Activity in the data set on K562 [2] came out at 24.5%; in the data set on K562 [3] it was 0.2%; in the data set on K562 [8], 43.7%; with K562 [10], 0.5%; in the data set with K562/4 [11], 89%; in the data set with K562/4 [14], 6%. The Activity amounted to 20.4% in the data set on K562/4 [15], 17.5% in the data set on K562/4 [17] and 8% with K562/4 [19]. In addition, the IC50 with A549 is 7.7 µM; in the data set on K562 [6], 0.5 µM; in the data set with K562/4 [12], 1.2 µM. Moreover, the viability at 1 µM with K562/4 [13] is 48.9%; in the data set with K562/4 [18], 3.4%. Besides, the “fold change (FC)” value in data set [16] is given as “<= 2”.

The record behind these values is ChEMBL document CHEMBL6087404, “Naphthoindole-2-carboxamides as a lipophilic chemotype of hetarene-anthraquinones potent against P-gp resistant tumor cells” (Eur J Med Chem, 2025).
